{"source": "patent US7342122B2", "about": "“Bisphosphonate complexes” (priority 2003, dated 2008)", "key": {"[1]": {"system": "SNB-75", "assay": "Cell growth inhibition, brain cancer cell line SNB-75", "assay_type": "cell-based", "conditions": "SNB-75, brain cancer cell line", "protocol": "(§1) KB cells were purchased from Human Science Research Resource Bank (Osaka, Japan). The cells were cultured in Earle's MEM (GIBCO BRL) containing 10% FBS (Bio Whittaker) at 37° C. under 5% CO2. After 24 hours the test compounds were added to the cells at the indicated concentrations. 72 hours later the cells were stained with tripan blue and counted manually. IC50 is calculated as the concentration (aqueous solution) of complex required to inhibit growth of cells by 50%.\n(§2) In a similar fashion a representative number of examples of compounds of the invention were tested for their ability to inhibit the growth/proliferation of cell types representing a number of different cancers. The results are provided in Tables 4-13, below, which provide the Inhibition Constants (IC50, μM) for each compound across various cell lines."}, "[2]": {"system": "NCI-H460", "assay": "Cell growth inhibition, lung cancer cell line NCI-H460", "assay_type": "cell-based", "protocol": "as §1, §2"}, "[3]": {"system": "MDA-MB-231", "assay": "Cell growth inhibition, breast cancer cell line MDA-MB-231", "assay_type": "cell-based", "conditions": "MDA-MB-231, breast cancer cell line", "protocol": "as §1, §2"}, "[4]": {"system": "MCF-7", "assay": "Cell growth inhibition, breast cancer cell line MCF-7", "assay_type": "cell-based", "conditions": "MCF-7, breast cancer cell line", "protocol": "as §1, §2"}, "[5]": {"system": "SF-268", "assay": "Cell growth inhibition, brain cancer cell line SF-268", "assay_type": "cell-based", "conditions": "SF-268, brain cancer cell line", "protocol": "as §1, §2"}, "[6]": {"system": "NCI-H522", "assay": "Cell growth inhibition, lung cancer cell line NCI-H522", "assay_type": "cell-based", "protocol": "as §1, §2"}, "[7]": {"system": "DMS273", "assay": "Cell growth inhibition, lung cancer cell line DMS273", "assay_type": "cell-based", "protocol": "as §1, §2"}, "[8]": {"system": "U251", "assay": "Cell growth inhibition, brain cancer cell line U251", "assay_type": "cell-based", "protocol": "as §1, §2"}, "[9]": {"system": "KB cells", "assay": "In vitro assay, cell growth inhibition (KB cells)", "assay_type": "cell-based", "conditions": "72 hours", "protocol": "as §1"}, "[10]": {"system": "OVCAR-5", "assay": "Cell growth inhibition, ovarian cancer cell line OVCAR-5", "assay_type": "cell-based", "conditions": "OVCAR-5, ovarian cancer cell line", "protocol": "as §1, §2"}, "[11]": {"system": "SF-539", "assay": "Cell growth inhibition, brain cancer cell line SF-539", "assay_type": "cell-based", "conditions": "SF-539, brain cancer cell line", "protocol": "as §1, §2"}, "[12]": {"system": "BSY-1", "assay": "Cell growth inhibition, breast cancer cell line BSY-1", "assay_type": "cell-based", "conditions": "BSY-1, breast cancer cell line", "protocol": "as §1, §2"}, "[13]": {"system": "MKN45", "assay": "Cell growth inhibition, human stomach cancer MKN45", "assay_type": "cell-based", "protocol": "as §1, §2"}, "[14]": {"system": "A549", "assay": "Cell growth inhibition, lung cancer cell line A549", "assay_type": "cell-based", "protocol": "as §1, §2"}, "[15]": {"system": "RXF-631L", "assay": "Cell growth inhibition, renal cancer RXF-631L", "assay_type": "cell-based", "protocol": "as §1, §2"}, "[16]": {"system": "SF-295", "assay": "Cell growth inhibition, brain cancer cell line SF-295", "assay_type": "cell-based", "conditions": "SF-295, brain cancer cell line", "protocol": "as §1, §2"}, "[17]": {"system": "St-4", "assay": "Cell growth inhibition, human stomach cancer St-4", "assay_type": "cell-based", "conditions": "St-4, human stomach cancer", "protocol": "as §1, §2"}, "[18]": {"system": "DMS114", "assay": "Cell growth inhibition, lung cancer cell line DMS114", "assay_type": "cell-based", "protocol": "as §1, §2"}, "[19]": {"system": "DU-145", "assay": "Cell growth inhibition, prostatic cancer DU-145", "assay_type": "cell-based, human", "conditions": "DU-145, prostatic cancer", "protocol": "as §1, §2"}, "[20]": {"system": "OVCAR-3", "assay": "Cell growth inhibition, ovarian cancer cell line OVCAR-3", "assay_type": "cell-based", "conditions": "OVCAR-3, ovarian cancer cell line", "protocol": "as §1, §2"}, "[21]": {"system": "MKN74", "assay": "Cell growth inhibition, human stomach cancer MKN74", "assay_type": "cell-based", "protocol": "as §1, §2"}, "[22]": {"system": "HBC-4", "assay": "Cell growth inhibition, breast cancer cell line HBC-4", "assay_type": "cell-based", "conditions": "HBC-4, breast cancer cell line", "protocol": "as §1, §2"}, "[23]": {"system": "HCC2998", "assay": "Cell growth inhibition, colon cancer cell line HCC2998", "assay_type": "cell-based", "protocol": "as §1, §2"}, "[24]": {"system": "MKN7", "assay": "Cell growth inhibition, human stomach cancer MKN7", "assay_type": "cell-based", "protocol": "as §1, §2"}, "[25]": {"system": "PC-3", "assay": "Cell growth inhibition, prostatic cancer PC-3", "assay_type": "cell-based", "conditions": "PC-3, prostatic cancer", "protocol": "as §1, §2"}, "[26]": {"system": "MKN1", "assay": "Cell growth inhibition, human stomach cancer MKN1", "assay_type": "cell-based", "protocol": "as §1, §2"}, "[27]": {"system": "HCT-116", "assay": "Cell growth inhibition, colon cancer cell line HCT-116", "assay_type": "cell-based", "conditions": "HCT-116, colon cancer cell line", "protocol": "as §1, §2"}, "[28]": {"system": "KM-12", "assay": "Cell growth inhibition, colon cancer cell line KM-12", "assay_type": "cell-based", "conditions": "KM-12, colon cancer cell line", "protocol": "as §1, §2"}, "[29]": {"system": "LOX-IMVI", "assay": "Cell growth inhibition, melanoma cell line LOX-IMVI", "assay_type": "cell-based", "protocol": "as §1, §2"}, "[30]": {"system": "NCI-H23", "assay": "Cell growth inhibition, lung cancer cell line NCI-H23", "assay_type": "cell-based", "protocol": "as §1, §2"}, "[31]": {"system": "HCT-15", "assay": "Cell growth inhibition, colon cancer cell line HCT-15", "assay_type": "cell-based", "conditions": "HCT-15, colon cancer cell line", "protocol": "as §1, §2"}, "[32]": {"system": "NCI-H226", "assay": "Cell growth inhibition, lung cancer cell line NCI-H226", "assay_type": "cell-based", "protocol": "as §1, §2"}, "[33]": {"system": "SNB-78", "assay": "Cell growth inhibition, brain cancer cell line SNB-78", "assay_type": "cell-based", "conditions": "SNB-78, brain cancer cell line", "protocol": "as §1, §2"}, "[34]": {"system": "ACHN", "assay": "Cell growth inhibition, renal cancer ACHN", "assay_type": "cell-based", "protocol": "as §1, §2"}, "[35]": {"system": "SK-OV-3", "assay": "Cell growth inhibition, ovarian cancer cell line SK-OV-3", "assay_type": "cell-based", "conditions": "SK-OV-3, ovarian cancer cell line", "protocol": "as §1, §2"}, "[36]": {"system": "HT-29", "assay": "Cell growth inhibition, colon cancer cell line HT-29", "assay_type": "cell-based", "conditions": "HT-29, colon cancer cell line", "protocol": "as §1, §2"}, "[37]": {"system": "OVCAR-4", "assay": "Cell growth inhibition, ovarian cancer cell line OVCAR-4", "assay_type": "cell-based", "conditions": "OVCAR-4, ovarian cancer cell line", "protocol": "as §1, §2"}, "[38]": {"system": "all cell types (cancer cell lines of Tables 4-12)", "assay": "Cell growth inhibition, mean over all cell types of the panel", "assay_type": "cell-based", "conditions": "mean over all cell lines of Tables 4-12", "protocol": "as §1, §2"}, "[39]": {"system": "MKN28", "assay": "Cell growth inhibition, human stomach cancer MKN28", "assay_type": "cell-based", "protocol": "as §1, §2"}, "[40]": {"system": "OVCAR-8", "assay": "Cell growth inhibition, ovarian cancer cell line OVCAR-8", "assay_type": "cell-based", "conditions": "OVCAR-8, ovarian cancer cell line", "protocol": "as §1, §2"}, "[41]": {"system": "HBC-5", "assay": "Cell growth inhibition, breast cancer cell line HBC-5", "assay_type": "cell-based", "conditions": "HBC-5, breast cancer cell line", "protocol": "as §1, §2"}}, "data": [{"smiles": "[Cl-].[Cl-].c1cc[n+]2c(c1)-c1cccc[n+]1[Pd-2]21[NH2+]CC[NH+]1Cc1c2ccccc2cc2ccccc12", "note": "[Example 5, [Pd(bpy)(Aten)]Cl2]", "values": [{"measurement": "log10 IC50 (M)", "setting": "[1]", "result": -5.16}, {"measurement": "log10 IC50 (M)", "setting": "[2]", "result": -5.86}, {"measurement": "log10 IC50 (M)", "setting": "[3]", "result": -5.29}, {"measurement": "log10 IC50 (M)", "setting": "[4]", "result": -5.28}, {"measurement": "log10 IC50 (M)", "setting": "[5]", "result": -5.27}, {"measurement": "log10 IC50 (M)", "setting": "[6]", "result": -5.22}, {"measurement": "log10 IC50 (M)", "setting": "[7]", "result": -5.24}, {"measurement": "log10 IC50 (M)", "setting": "[8]", "result": -5}, {"measurement": "KB cells remaining/growth in percent (Table 2, untitled)", "setting": "[9]; 1 μg/ml", "result": 86.9, "unit": "%"}, {"measurement": "KB cells remaining/growth in percent (Table 2, untitled)", "setting": "[9]; 3 μg/mL", "result": 81.4, "unit": "%"}, {"measurement": "KB cells remaining/growth in percent (Table 2, untitled)", "setting": "[9]; 10 μg/mL", "result": 75.1, "unit": "%"}, {"measurement": "KB cells remaining/growth in percent (Table 2, untitled)", "setting": "[9]; 30 μg/mL", "result": 44.7, "unit": "%"}, {"measurement": "KB cells remaining/growth in percent (Table 2, untitled)", "setting": "[9]; 100 μg/mL", "result": 12.3, "unit": "%"}, {"measurement": "IC50", "setting": "[9]; concentration to inhibit growth of cells by 50%", "result": 36, "unit": "µM"}, {"measurement": "log10 IC50 (M)", "setting": "[10]", "result": -5.3}, {"measurement": "log10 IC50 (M)", "setting": "[11]", "result": -5.36}, {"measurement": "log10 IC50 (M)", "setting": "[12]", "result": -5.34}, {"measurement": "log10 IC50 (M)", "setting": "[13]", "result": -5.08}, {"measurement": "log10 IC50 (M)", "setting": "[14]", "result": -4.88}, {"measurement": "log10 IC50 (M)", "setting": "[15]", "result": -5.43}, {"measurement": "log10 IC50 (M)", "setting": "[16]", "result": -5.31}, {"measurement": "log10 IC50 (M)", "setting": "[17]", "result": -5.12}, {"measurement": "log10 IC50 (M)", "setting": "[18]", "result": -5.28}, {"measurement": "log10 IC50 (M)", "setting": "[19]", "result": -5.1}, {"measurement": "log10 IC50 (M)", "setting": "[20]", "result": -4.95}, {"measurement": "log10 IC50 (M)", "setting": "[21]", "result": -5.33}, {"measurement": "log10 IC50 (M)", "setting": "[22]", "result": -4.91}, {"measurement": "log10 IC50 (M)", "setting": "[23]", "result": -5.54}, {"measurement": "log10 IC50 (M)", "setting": "[24]", "result": -5.04}, {"measurement": "log10 IC50 (M)", "setting": "[25]", "result": -4.9}, {"measurement": "log10 IC50 (M)", "setting": "[26]", "result": -5.28}, {"measurement": "log10 IC50 (M)", "setting": "[27]", "result": -5.38}, {"measurement": "log10 IC50 (M)", "setting": "[28]", "result": -5.22}, {"measurement": "log10 IC50 (M)", "setting": "[29]", "result": -5.15}, {"measurement": "log10 IC50 (M)", "setting": "[30]", "result": -4.88}, {"measurement": "log10 IC50 (M)", "setting": "[31]", "result": -5.14}, {"measurement": "log10 IC50 (M)", "setting": "[32]", "result": -5.41}, {"measurement": "log10 IC50 (M)", "setting": "[33]", "result": -4.67}, {"measurement": "log10 IC50 (M)", "setting": "[34]", "result": -5.22}, {"measurement": "log10 IC50 (M)", "setting": "[35]", "result": -5.1}, {"measurement": "log10 IC50 (M)", "setting": "[36]", "result": -5.25}, {"measurement": "log10 IC50 (M)", "setting": "[37]", "result": -5.06}, {"measurement": "log10 IC50 (M)", "setting": "[38]", "result": -5.18}, {"measurement": "log10 IC50 (M)", "setting": "[39]", "result": -4.86}, {"measurement": "log10 IC50 (M)", "setting": "[40]", "result": -5.13}, {"measurement": "log10 IC50 (M)", "setting": "[41]", "result": -4.98}]}]}
